Measurements from patent US11786507B2, “Methods of treating HIV-associated neurological disorders (HAND)” (priority 2020, dated 2023).

Key:
[1] = test system: MAPK signaling pathways; test: Western blotting of total and phosphorylated p38, JNK, ERK in cortex and hippocampus; assay type: in vivo, mouse; conditions: PAM 15 mg/kg/day s.c.
Text: (§1) Doxycycline (Dox)-inducible and astrocyte-specific HIV-1 Tat-transgenic mice (iTat) were generated as previously described.^38 Wild-type (Wt, C57BL/6) and α7 nAChR knockout mice (α7^−/−, B6.129S7-Chrna^7tm1Ba/J) were purchased from the Jackson Laboratory (Bar Harbor, ME). All the animal procedures were approved by the Institutional Animal Care and Use Committee. Mice were housed with a 12-hour light and 12-hour dark photoperiod and provided water and food ad libitum. α7^−/− iTat mice were generated by cross breeding iTat mice with α7^−/− mice. α7^−/− genotyping was slightly modified with the JumpStart™ Taq DNA Polymerase-based PCR (JumpStart™ Taq DNA Polymerase, Sigma, catalog #D9307). […] Mice of 10-14 weeks old with body weights of 20-35 grams were fed with Dox-containing diet (0.625 g/kg, Envigo, catalog #TD.01306) as stated.
A RIPA buffer (50 mM Tris.HCl, pH 8.0, 280 mM NaCl, 0.5% NP-40, 1% C24H39NaO4, 0.2 mM EDTA, 2 mM EGTA and 10% glycerol) supplemented with protease inhibitors (Millipore-Sigma, catalog #S8830) and phosphatase inhibitors (Millipore-Sigma, catalog #4906845001) was used to lyse the brain tissues and cultured cells with brief sonication on ice. Protein concentrations of the lysates were determined using a Bio-Rad DC protein assay kit (Bio-Rad, catalog #5000111). Lysates were denatured in the SDS-PAGE loading buffer at 100° C. for 10 min, then electrophoretically separated by 8-15% SDS-PAGE, blotted onto 0.45 μm polyvinylidene fluoride membrane (GE Healthcare Life Sciences, catalog #10600023), and probed using appropriate antibodies against PSD-95 (Abcam, catalog #ab18258, and 1:2000 dilution), SYP (Abcam, catalog #ab8049, and 1:1000 dilution), Iba-1 (Wako, catalog #016-20001, and 1:500 dilution) and GFAP (DAKO, catalog #z330s, and 1:2000 dilution), p-p38 (Santa Cruz, catalog #sc-166182, and 1:1000 dilution), p38 (Santa cruz, catalog #sc-535, and 1:1000 dilution), p-JNK (Santa cruz, catalog #sc-6254, and 1:1000 dilution), JNK (Santa cruz, catalog #sc-571, and 1:1000 dilution), p-ERK (Santa cruz, catalog #sc-7383, and 1:1000 dilution), and ERK (Santa cruz, catalog #sc-514302, and 1:1000 dilution), α7 nAChR (Alomone, catalog #ANC-007, and 1:1000 dilution) and β-actin (Sigma-Aldrich, catalog #A1978, and 1:2000 dilution). A Bio-Rad ChemicDoc imaging system (Bio-Rad) and Image J were used for image capturing and analysis, respectively.
It was next determined which MAPK signaling pathways were responsive to PAM neuroprotective effects against Tat-induced neuropathologies. Both CORT and HIP were analyzed for expression and phosphorylation of p38, JNK, and ERK.

[2] = test system: iTat mice; test: Morris Water Maze (MWZ), training stage and probe test; assay type: in vivo, mouse; conditions: mouse, in vivo
Text: as §1
Open Field Test (OPT) and Morris Water Maze (MWZ) were performed sequentially using a computerized video tracking system (Anymaze, Stoelting) to determine the spontaneous locomotor activity and spatial learning and memory, respectively. For OPT, each mouse was allowed to move freely around a clear acrylic chamber (40.5×40.5×30.5 cm) for 10 minutes. Travel distance and maximum speed was determined by the AnyMaze software. For MWZ, a circle pool (1.2 m diameter) surrounded with a curtain was divided into four equal quadrants, and four signs with different shape were fixed onto the middle of each quadrant wall above the opaque water (24±1° C.). A hidden platform (1.5 cm below water surface) was put into a certain quadrant. Two stages consisting of 5-day training and probe test were carried out. In the training stage, four trials with a 15-20 minute interval were conducted in the every-day training, and for each trial mice were allowed to freely seek the platform within 90 seconds right after they were randomly put into one quadrant facing to the pool wall. If the mice found the platform within 90 seconds, 10 seconds would be added to allow them staying on the platform for memorizing, however, if failed, they would be directed toward the platform and allowed to stay on it for 15 seconds. Mice that were immobile or floating and unable to find the platform during the training stages were excluded from the experiments. Probe test was carried out on the next day following the 5-day training stage with a 60 seconds trial, and the platform was removed to prevent the mice from climbing onto it during the testing. One day after the behavioral tests, mice were euthanized and the brains were harvested.
To determine if α7 nAChR is involved in HAND, iTat mice were fed with Dox-containing food pellets for 7 days, […], and then subjected to open field test (OPT) for locomotor activity on day 14, and Morris Water Maze test (MWZ) for learning and spatial memory on day 15-20, and euthanized to harvest tissues on day 21 (FIG. 1A). Dox-containing food pellet feeding and PAM injection continued during the next 7 days of behavioral tests. To minimize the effects of injection on behavioral tests, PAM was injected 5 hours after each behavioral test.

`COc1cc(OC)c(NC(=O)Nc2cc(C)on2)cc1Cl` [PAM, 1-(5-chloro-2,4-dimethoxy-phenyl)-3-(5-methyl-isoxazol-3-yl)-urea] was tested, and the “p38 and p-p38α” value ([1]; CORT and HIP) was “increases of both p38 and p-p38α in both CORT and HIP”, the p-ERK ([1]; CORT and HIP, iTat and Wt mice) was “no differences of p-ERK in CORT and HIP of both iTat and Wt mice” and the JNK ([1]; CORT, Wt and iTat mice) was “increases of JNK in CORT of Wt mice, increases of JNK in CORT of iTat mice”. The p-JNK ([1]; CORT, all mice) was “no differences of p-JNK in CORT of all mice”, the “JNK and p-JNK” value ([1]; HIP, all mice) was “increases of JNK and p-JNK in HIP of all mice” and the ERK ([1]; HIP, iTat mice) was “decreases of ERK in HIP of iTat mice”. For the same compound, the “MWZ probe test latency to platform” value [2] was “decreases of latency to platform in both male iTat and Wt mice”, the “MWZ probe test platform entries, time at platform, distance to platform” value [2] was “no differences” and the “MWZ probe test time at target quadrant and distance to target quadrant” value [2] was “reversed by PAM treatment with the differences in distance to target quadrant”. The “MWZ training stage cumulative travel distance” value [2] was “differences of cumulative travel times in male iTat mice on day 4 and female iTat mice on day 2”, the “MWZ training stage escape latency and cumulative distance” value [2] was “only some improvements on male Wt mice” and the “MWZ training stage escape latency time” value [2] was “differences of escape latency time in male iTat mice on day 4 and 5 and female iTat mice on day 2 and 4”.
